Test results taken from patent US20130217122A1, “Expansion of Interferon-Gamma-Producing T-Cells Using Glypican-3 Peptide Library” (The Trustees of the University of Pennsylvania, priority 2012, published 2013).

Experiments:
CD8+ T-cells [1] = assay type: cell-based, human
HLA-A2.1 = HLA-A2.1 (Homo sapiens, UniProt P04439, D140Y/D185E/D98H/E176V/E277Q/G131W/G231S/I119V/I121R/I166T/I218V/L300P/L318F/N151K/N90K/P208A/P217A/Q86G/Q94H/R138H/R169H/T345S); test: T2 binding assay; conditions: 9-10 mer epitopes
CD8+ T-cells [2] = assay type: cell-based, human; remark: listed apart in the source
[3] = biological target: T1, human HLA-A2.1 on T2 cells (human); test: T2 binding assay (HLA-A2 on T2 cells, flow cytometry)
T1 construct: whole, on cells; Empty or peptide-receptive HLA-A2.1 on TAP-deficient T2 cells; also called HLA-A*0201; class I MHC molecules

| Molecule | Median pentamer+/CD8+ cells (range) (CD8+ T-cells [1]) | No. with pentamer + cluster (CD8+ T-cells [1]) | No. with pentamer + cluster (%) (CD8+ T-cells [1]) | binding affinity of optimum HLA-A2-binding epitopes (HLA-A2.1) | PD-1 expression in pentamer-positive versus pentamer-negative CD8+ T-cells (CD8+ T-cells [1]) | IFNγ secretion by expanded cells restimulated with cognate antigens (CD8+ T-cells [2]) | expansion of pentamer-specific CD8+ T-cells (CD8+ T-cells [2]) | binding result [3] |
| --- | --- | --- | --- | --- | --- | --- | --- | --- |
| CINGVCWTV [NS3 1073, reference compound] | 0.07 (0.03-0.10) % | 2 (29) | 2 (29) % |  |  |  |  |  |
| ELFDSLFPV [GPC3 169-178, peptide and HLA-A2.1 pentamer loaded with it] | 1.00 (0.20-1.60) % | 5 (63) | 5 (63) % | strong binding affinity |  |  |  |  |
| FEFVGEFFTD [GPC3 142-151, peptide and HLA-A2.1 pentamer loaded with it] | 0.47 (0.03-0.90) % | 2 (22) | 2 (22) % | strong binding affinity |  |  |  |  |
| GILGFTFVL [Flu matrix, reference compound] | 0.40 (0.30-1.30) % | 5 (56) | 5 (56) % |  |  |  |  |  |
| KLLTSMAISV [GPC3 563-572, peptide and HLA-A2.1 pentamer loaded with it] | 0.45 (0.05-1.60) % | 4 (44) | 4 (44) % | strong binding affinity | strong trend |  |  |  |
| LMLGEFLKL [SurlM2, reference compound] | 0.20 (0.20-0.20) % | 1 (11) | 1 (11) % |  |  |  |  |  |
| RLQPGLKWV [GPC3 44-52, peptide and HLA-A2.1 pentamer loaded with it] | 0.20 (0.10-0.30) % | 3 (33) | 3 (33) % | strong binding affinity | significantly greater | minimal-to-absent | readily detectable expansion |  |
| SLTPQAFEFV [GPC3 136-145, peptide and HLA-A2.1 pentamer loaded with it] | 0.70 (0.05-1.30) % | 4 (50) | 4 (50) % | strong binding affinity |  |  |  |  |
| FEFVGEFFTD (Synthetic 10 mer of human glypican-3 (NP-004475); also called GPC3 142-151; GPC3142-151) [Glypican-3 142-151 (FEFVGEFFTD)] |  |  |  |  |  |  |  | binds |
| RLQPGLKWV (Synthetic 9 mer of human glypican-3 (NP-004475); also called GPC3 44-52; GPC344-52) [Glypican-3 44-52 (RLQPGLKWV)] |  |  |  |  |  |  |  | binds |
| KLLTSMAISV (Synthetic 10 mer of human glypican-3 (NP-004475); also called GPC3 563-572; GPC3563-572) [Glypican-3 563-572 (KLLTSMAISV)] |  |  |  |  |  |  |  | binds |
| ELFDSLFPV (Synthetic 9 mer of human glypican-3 (NP-004475); also called GPC3 169-177; GPC3169-177) [Glypican-3 169-177 (ELFDSLFPV)] |  |  |  |  |  |  |  | binds |
